“And” between values parts separate entries of the source, which are not always exact repeats. Equal entries are not always repeated.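 Dose response: 5 concentrations. Exposure: 48 h. Format: 96-well plates. Endpoint: linear interpolation; highest concentration if not reached. The concentration for 50% growth inhibition is given as GI50. At the TGI there is no net growth.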
Experiments:
Assay in all cases: NCI anticancer screen, dose series, 48 h
A549 NSCLC = system: A549 NSCLC
CAKI-1 renal = system: CAKI-1 renal
EKVX NSCLC = system: EKVX NSCLC
HCT-15 colon = system: HCT-15 colon
HL-60(TB) leukemia = system: HL-60(TB) leukemia
IGROV1 ovarian = system: IGROV1 ovarian
KM12 colon = system: KM12 colon
MCF7 breast = system: MCF7 breast
MOLT-4 leukemia = system: MOLT-4 leukemia
SF-295 CNS = system: SF-295 CNS
SF-539 CNS = system: SF-539 CNS
SR leukemia = system: SR leukemia
TK-10 renal = system: TK-10 renal

Row | SMILES | TGI (A549 NSCLC) | TGI (CAKI-1 renal) | TGI (EKVX NSCLC) | TGI (HCT-15 colon) | TGI (HL-60(TB) leukemia) | TGI (IGROV1 ovarian) | TGI (KM12 colon) | TGI (MCF7 breast) [µM] | TGI (MOLT-4 leukemia) | TGI (SF-295 CNS) | TGI (SF-539 CNS) | TGI (SR leukemia) | TGI (TK-10 renal) | GI50 (CAKI-1 renal) | GI50 (MCF7 breast) [µM] | GI50 (SF-295 CNS) | GI50 (SR leukemia) | GI50 (HCT-15 colon) [µM] | GI50 (IGROV1 ovarian) [µM] | GI50 (TK-10 renal) [µM]
1 | COC(=O)C(CC(C)C)NC(=O)C(NC(=O)c1ccc(-c2ccc(Cl)cc2Cl)o1)C(C)C (stereo unspecified) | > 100 µM | > 100 µM | 62.6 µM | 75.6 µM | 30.8 µM | > 100 µM | 58.9 µM | 44.7 | 44.7 µM | 52.6 µM | > 100 µM | > 100 µM | 84.5 µM |  |  |  |  |  |  | 
2 | CCOC(=O)Cc1cc(OC)c(OC)cc1/C(Cl)=C(\CO)c1ccc(OC)c(OC)c1 | > 100 µM | > 100 µM | > 100 µM | > 100 µM | > 100 µM | > 100 µM |  |  | > 100 µM | > 100 µM |  |  | > 100 µM |  |  |  |  |  |  | 
3 | O=C(Nc1ccc([N+](=O)[O-])cc1)Nn1cnnc1 | > 100 µM | > 100 µM | > 100 µM | > 100 µM | > 100 µM | > 100 µM | 72.6 µM | > 100 | > 100 µM | 63.4 µM | 73.9 µM | > 100 µM | > 100 µM |  |  |  |  |  |  | 
4 | CCNC(=O)C(C)C1CCC2(C)C=CC(=O)C(C)=C2C1O (stereo unspecified) | > 100 µM | > 100 µM | > 100 µM | > 100 µM | > 100 µM | > 100 µM | > 100 µM | > 100 | > 100 µM | > 100 µM | > 100 µM |  |  |  |  |  |  |  |  | 
5 | Nc1nc(Nc2ccc(Cl)c(Cl)c2)nc2nc[nH]c12 | 33.6 µM | 25.1 µM | 18.8 µM | 37.2 µM | 31.9 µM | 27 µM | 28.6 µM | 45.6 | 39.2 µM | 35.7 µM | 26.7 µM | 33.2 µM | 28.3 µM |  |  |  |  |  |  | 
6 | COc1cc(OC2OC(CO)C(O)C(O)C2O)c2c(O)c3c(=O)cc(C)oc3cc2c1 (stereo unspecified) | > 100 µM | > 100 µM | > 100 µM | > 100 µM | > 100 µM | > 100 µM | > 100 µM | > 100 | > 100 µM | > 100 µM | > 100 µM |  | > 100 µM |  |  |  |  |  |  | 
7 | FC(F)(F)c1ccc2c(c1)N(CCCNCCN1CCOCC1)c1ccccc1S2 | 28.3 µM |  | 29.4 µM | 19.5 µM | 22.2 µM | 33.5 µM | 25 µM |  | 20.1 µM | 27.4 µM | 16.9 µM | 21.8 µM | 25.4 µM |  |  |  |  |  |  | 
8 | OCC#CCNCl | > 100 µM |  | > 100 µM | > 100 µM | > 100 µM | > 100 µM | > 100 µM | > 100 | > 100 µM | > 100 µM | > 100 µM |  |  |  |  |  |  |  |  | 
9 | N#C/C(=C\c1ccncc1)c1csc2ccccc12 | > 100 µM | > 88 µM | > 100 µM | 77.4 µM | 35.5 µM | 97.4 µM | 37.8 µM | > 96.7 | 43.1 µM | > 100 µM | 48.9 µM |  |  |  |  |  |  |  |  | 
10 | COc1ccccc1/C=C(/C)[N+](=O)[O-] | 8.66 µM and 5.18 µM | 4.85 µM and 1.92 µM | 20.1 µM and 12.3 µM | 7.43 µM and 5.11 µM | 4.21 µM and 5.4 µM | 5.18 µM and 3.72 µM | 10.2 µM and 3.46 µM | > 100 | 0.598 µM and 1.5 µM | 20 µM and 6.33 µM | 6.6 µM and 3.71 µM | 1.61 µM and 5.08 µM | 13 µM and 4.21 µM | 2.13 µM and 0.687 µM | 0.593 | 5.31 µM and 2.53 µM | 0.237 µM and 1.5 µM |  |  | 
11 | CCCCCC(=O)N[C@@H](c1ccco1)[C@@H](O)C(=O)O[C@H]1C[C@@]2(O)[C@@H](OC(=O)c3ccccc3)[C@@H]3[C@]4(OC(C)=O)CO[C@@H]4C[C@H](O)[C@@]3(C)C(=O)[C@H](OC(C)=O)C(=C1C)C2(C)C |  |  | > 25 µM | > 25 µM |  |  | > 25 µM | > 25 |  | 0.0284 µM |  | > 25 µM | 18.2 µM | 0.329 µM |  | 0.0009 µM |  | 0.0396 | 0.00129 | 0.0275
12 | S=c1sc2c(s1)SC(c1ccccc1)CS2 (stereo unspecified) | > 100 µM | > 100 µM | > 100 µM | > 100 µM | > 100 µM | > 100 µM | > 100 µM | > 100 | > 100 µM | > 100 µM | > 100 µM |  |  |  |  |  |  |  |  | 
13 | Cc1ccc(/C=C2\Sc3scc(-c4ccccc4)[n+]3C2=O)cc1 | > 84.3 µM | 33.4 µM | > 58.5 µM | 50.8 µM | 5.31 µM | > 56.8 µM | > 49.5 µM | > 100 | > 72.6 µM | > 70.3 µM | > 60.6 µM | 26.4 µM | 53.1 µM |  |  |  |  |  |  | 
14 | O=C(NN1C(=O)C(Cl)C1c1ccccc1O)c1ccccc1O (stereo unspecified) | > 100 µM |  | > 100 µM |  | 43.3 µM | > 100 µM | > 100 µM |  | > 100 µM | > 100 µM | 48.7 µM | > 100 µM | > 100 µM |  |  |  |  |  |  | 
15 | Brc1ccc(C2C3CSc4ccccc4C3=NN2c2ccccc2)cc1 (stereo unspecified) | > 100 µM | > 100 µM |  | > 100 µM | > 100 µM | > 100 µM | > 100 µM | > 100 | > 100 µM |  | > 100 µM | > 100 µM | > 100 µM |  |  |  |  |  |  | 
16 | Cc1c(O)c(=O)ccn1CCN | > 100 µM | > 100 µM | > 100 µM | > 100 µM |  | > 100 µM | > 100 µM |  | > 100 µM |  |  |  | > 100 µM |  |  |  |  |  |  | 
17 | C[N+](C)(CCCCCC[N+](C)(C)CCCN1C(=O)c2cccc3cccc(c23)C1=O)CCCN1C(=O)c2cccc3cccc(c23)C1=O | > 100 µM | > 100 µM | > 100 µM | > 100 µM | > 100 µM | > 100 µM | > 100 µM | > 100 | > 100 µM | > 100 µM | > 100 µM | > 100 µM | > 100 µM |  |  |  |  |  |  | 
18 | O=S(O)CCCCCSSc1ccccc1 |  |  | > 100 µM |  | 88.1 µM |  | > 100 µM |  | 34.2 µM |  | 62.6 µM | 35 µM | > 100 µM |  |  |  |  |  |  | 
19 | C/C(=C/C(=O)Nc1ccccc1)Nc1onc(C)c1C | > 100 µM |  | > 100 µM | > 100 µM | > 100 µM | > 100 µM | > 100 µM | > 100 | > 100 µM | > 100 µM | > 100 µM |  |  |  |  |  |  |  |  | 
20 | CC(CSC(=N)N)C(N)=O (stereo unspecified) | > 100 µM | > 100 µM | > 100 µM | > 100 µM | > 100 µM | > 100 µM | > 100 µM | > 100 |  | > 100 µM |  | > 100 µM | > 100 µM |  |  |  |  |  |  | 

— PubChem BioAssay (NCI)
